Values after ≈ are worked out from the molar mass of the structure shown. Where two headings read alike, the source gives them in different places.
Key:
[1] = tested on: 25 different MRSA isolates and 5 VRE isolates; test: Pooled MIC testing (MIC50, MIC90, range); format: cell-based; settings: 25 MRSA isolates and 5 VRE isolates
Source text: The MIC50 is the minimum inhibitory concentration required to inhibit the growth of 50% of the strains tested, and the MIC90, the concentration required to inhibit the growth of 90% of the strains tested.

[2] = tested on: USA/VISA 5836 (VISA); test: MIC by broth microdilution (experiment B); format: cell-based; settings: Staphylococcus aureus, combination 1:1, value = mg/L total drug
Method: (§1) Minimum inhibitory concentrations (MICs) of a range of clinical and control bacterial organisms were measured according to BSAC (British Society for Antimicrobial Chemotherapy) guidelines (Andrews 2001), for single agents and combinations of agents, described briefly as follows. MICs were measured by agar dilution (Experiment A) and by broth microdilution (experiment B).
(§2) Stock solutions were prepared at concentrations of 1000 mg/L and 100 mg/L. The appropriate amounts of each stock solution were added to separate Petri dishes give a range of final concentrations (after the addition of 20 mL molten agar): from 0.12 to 32 mg/L. In experiment A, a 1:1 ratio of each agent was added to the appropriate Petri dish so that a 2 mg/L plate contained 2 mg/L of each agent. Volumes (20 mL) of cooled molten IST agar (oxoid) was added to each Petri dish and mixed by swirling. After drying, the plates were stored at 4° C. and protected from light. Plates were used on the day of preparation.
(§3) The test organisms were grown overnight in 5 mL IST broth. […] For the broth microdilution, each well of a microtitre plate was inoculated with diluted overnight culture to give a final inoculum of 5×10^5 cfu/mL. […]
(§4) The MIC is the minimum amount of an antibiotic at which there is no visible growth of bacteria. Tiny single colonies or faint hazes were not counted as growth.

[3] = tested on: VISA 3900 UK (VISA); test: MIC by broth microdilution (experiment B); format: cell-based; settings: Staphylococcus aureus, combination 1:1, value = mg/L total drug
Method: as §1, §2, §3, §4

[4] = tested on: S. epidermidis 1228; test: MIC by broth microdilution (experiment B); format: cell-based; settings: Staphylococcus epidermidis, combination 1:1, value = mg/L total drug
Method: as §1, §2, §3, §4

[5] = tested on: USA/VISA) 5827 (VISA; test: MIC by broth microdilution (experiment B); format: cell-based; settings: Staphylococcus aureus, combination 1:1, value = mg/L total drug
Method: as §1, §2, §3, §4

[6] = tested on: Mu50exJapan (VISA); test: MIC by broth microdilution (experiment B); format: cell-based; settings: Staphylococcus aureus, combination 1:1, value = mg/L total drug
Method: as §1, §2, §3, §4

[7] = tested on: MRSA; settings: literature evidence (Taylor et al., 1987); cited from earlier work

Row | MIC [2] [µg/mL] | MIC [3] [µg/mL] | MIC [4] [µg/mL] | Compound | antibacterial activity against MRSA [7] | further results
1 | 8 | 2 | 2 | Clc1ccc(COC(Cn2ccnc2)c2ccc(Cl)cc2Cl)c(Cl)c1 (stereo not drawn) [Miconazole, 1-[2-(2,4-Dichlorophenyl)-2-[(2,4-dichlorophenyl)methoxy]ethyl]-1H-imidazole] | – | Range of MICs [1]: 0.5 to 8 mg/L; MIC50 ([1]; concentration inhibiting growth of 50% of strains): 2 µg/mL (≈ 4.81 µM); MIC90 ([1]; concentration inhibiting growth of 90% of strains): 2 µg/mL (≈ 4.81 µM); MIC ([1]; read-out: highest MIC): 8 µg/mL (≈ 19.2 µM); MIC ([1]; read-out: lowest MIC): 0.5 µg/mL (≈ 1.2 µM)
2 | 8 | 8 | 2 | Clc1ccc(COC(Cn2ccnc2)c2ccc(Cl)cc2Cl)cc1 (stereo not drawn) [Econazole, 1-[2-[(4-Chlorphenyl)methoxy]-2-(2,4-dichlorophenyl)ethyl]-1H-imidazole] | – | MIC [5]: 4 µg/mL; MIC [6]: 8 µg/mL
3 | – | – | – | CCN(CC)C(=S)SSC(=S)N(CC)CC [Disulfiram (ethanol), disulfiram] | some antibacterial activity | –
4 | – | – | – | CCN(CC)C(=S)S [DDTC, diethyldithiocarbamate] | some antibacterial activity | –
